Test results as given in patent US6664279B2, “Remedies or preventives for liver diseases containing diaminotrifluoromethylpyridine derivatives” (Ishihara Sangyo Kaisha, Ltd., priority 2000, dated 2003).

Tests used:
[1] = system: acetaminophen (APAP) induced mouse hepatopathy model; assay: Therapeutic effect on mouse acetaminophen hepatopathy model; format: in vivo
Source text: Therapeutic Effect on Mouse Acetaminophen Hepatopathy Model
The therapeutic effect of N-(2-ethylsulfonylamino-5-trifluoromethyl-3-pyridyl)cyclohexanecarboxamide sodium salt hydrate (hereinafter referred to as compound 1) on acetaminophen (APAP) induced mouse hepatopathy model was examined.
To Crj: CD-1(ICR) male mice (6 weeks old) (Charles River Japan Inc.), APAP (Lot. No. 107H0332, manufactured by Sigma) dissolved with physiological saline (Lot No. 80909D manufactured by Fuso Pharmaceutical Industries, Ltd.) was intraperitoneally administered in an amount of the active ingredient of 300 mg/kg to induce hepatopathy. 3 Hours after the administration of APAP, the compound 1 dissolved in physiological saline was singly administered subcutaneously on the back in an amount of the active ingredient of 10 mg/kg. To non-treated group mice, physiological saline was similarly administered. 6 Hours after the administration of APAP, the blood was collected, and glutamic-oxaloacetic transaminase (GOT) and glutamic-pyruvic transaminase (GPT) values in the blood serum were measured.
In the present test, mice were kept on a fast from 20 hours before the administration of APAP until the completion of the test.

[2] = system: rat liver ischemia reperfusion hepatopathy model; assay: Therapeutic effect on rat liver ischemia reperfusion hepatopathy model; format: in vivo
Source text: Therapeutic Effect on Rat Liver Ischemia Reperfusion Hepatopathy Model
The therapeutic effect of the compound 1 on rat hepatopathy model induced by partially subjecting the liver to ischemia reperfusion was examined.
(1) The compound 1 was used as a drug formulation. The formulation composition (content per one vial) was as follows.
(2) Crj:SD (IGS) male rats (7 weeks old) (Charles River Japan, Inc.) were anesthetized with ether, and while maintaining them anesthetized with gas-oxygen fluothane, the above drug formulation of the compound 1 diluted with 5% glucose (Lot. 9I78N, manufactured by Otsuka Pharmaceutical Factory, Inc.) so that the dose would be 10 mg/kg/hr as calculated as anhydride of the compound 1, was subcutaneously administered singly. Then, an osmotic pump (alzet osmotic pump 2001D, ALZA CORPORATION, U.S.A.) in which the above drug formulation of the compound 1 diluted with 5% glucose (Lot. 9I78N, manufactured by Otsuka Pharmaceutical Factory, Inc.) so that the dose would be 0.3 mg/kg/hr as calculated as anhydride of the compound 1 was put, was embedded in the dorsal cervical subcutaneous. To non-treated group rats, 5% glucose alone was administered similarly. […] The abdomen was closed, the rats were awaked, and after 90 minutes, the abdomen was opened up again under the above-described anesthesia, the clamp was removed and the rats were subjected to reperfusion. To pseudo-induced group rats, operation except for the ischemia reperfusion treatment was carried out. The abdomen was closed and the rats were awaked, and 6 hours after the reperfusion, aspartate aminotransferase (AST) and alanine aminotransferase (ALT), lactate dehydrogenase (LDH) and total bilirubin values in the blood serum were measured.

[3] = Crj:CD-1(ICR) male mice, APAP 300 mg/kg i.p., 10 mg/kg s.c. single dose 3 hours after APAP, blood 6 hours after APAP, N = 5
[4] = Crj:SD (IGS) male rats, 90 minutes ischemia of about 70% of liver, 10 mg/kg/hr s.c. singly then 0.3 mg/kg/hr by osmotic pump, 6 hours after reperfusion, N = 10

In the case of `CCS(=O)(=O)Nc1ncc(C(F)(F)F)cc1NC(=O)C1CCCCC1.O.[Na]` [compound 1, N-(2-ethylsulfonylamino-5-trifluoromethyl-3-pyridyl)cyclohexanecarboxamide sodium salt hydrate], the “GOT in blood serum (mean ± standard deviation)” value [1, 3] was 530 ± 212 IU/L, the “GPT in blood serum (mean ± standard deviation)” value [1, 3] was 807 ± 603 IU/L and the “Effect on hepatopathy (increases in biochemical examination values), in words” value ([1]; acetaminophen induced mouse hepatopathy model, 10 mg/kg s.c., versus non-treated group) was “hepatopathy was alleviated”. For the same molecule, the “ALT (GPT) in blood serum (mean)” value [2, 4] was 5436 IU/L, the “AST (GOT) in blood serum (mean)” value [2, 4] was 8669 IU/L and the “LDH in blood serum (mean)” value [2, 4] was 29601 IU/L. For the same molecule, the “Total bilirubin in blood serum (mean)” value [2, 4] was 0.299 mg/dL and the “Effect on hepatopathy (increases in biochemical examination values), in words” value ([2]; rat ischemia reperfusion hepatopathy model, versus non-treated group) was “alleviated”.
